Experimental data as given in patent US20260201008A1, “SECRETIN-DERIVED GLP1R SELECTIVE AGONISTS” (GUBRA A/S, priority 2023, published 2026).
Like-named read-outs stand apart in the source and are kept apart here. Numbered stars: 1 amine (or outer) side, 2 acyl side, 3 side chain; on linkers, the order of the positions; unused ones are H or OH. Square brackets hold non-standard residues; d marks the D form. Side chains are listed from the residue outwards. Peptide text beside a SMILES is read from it. * marks the point of attachment. C20 diacid = O=C(O)CCCCCCCCCCCCCCCCCCC(=O)*; γGlu = O=C(O)[C@H](CCC(=O)[*:2])N[*:1]; AEEA = NCCOCCOCC(=O)O; Aib = CC(C)(N)C(=O)O

What was measured:
[1] = biological target: SCTR (Homo sapiens, UniProt P47872); experiment: hSCTR potency, cAMP accumulation in CHO-K1 cells stably overexpressing hSCTR; assay type: cell-based; design: alternatively Euroscreen ES-712-AF; FAST-0161L; host or cells: CHO-K1
Sequence of SCTR (P47872 23-440): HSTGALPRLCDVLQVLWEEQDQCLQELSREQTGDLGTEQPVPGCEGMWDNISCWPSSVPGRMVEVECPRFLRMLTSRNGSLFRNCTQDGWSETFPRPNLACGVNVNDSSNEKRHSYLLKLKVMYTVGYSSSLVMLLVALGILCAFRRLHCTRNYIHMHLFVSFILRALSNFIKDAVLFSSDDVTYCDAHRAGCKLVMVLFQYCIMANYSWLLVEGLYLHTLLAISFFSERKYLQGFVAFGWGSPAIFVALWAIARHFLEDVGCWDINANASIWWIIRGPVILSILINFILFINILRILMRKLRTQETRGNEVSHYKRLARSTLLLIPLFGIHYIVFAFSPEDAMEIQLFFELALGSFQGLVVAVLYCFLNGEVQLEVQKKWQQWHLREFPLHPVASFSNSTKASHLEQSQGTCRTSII
Outline: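 Cells plated at 2000/well in DPBS with 0.05% casein and 0.5 mM IBMX, stimulated 30 min at room temperature with graded compound doses; human secretin as positive control. cAMP read by TR-FRET after 1 h. Purified peptides tested at 11 3-fold dilutions, n=2; EC50 by variable-slope sigmoid fit.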

[2] = biological target: GLP1R (Homo sapiens, UniProt P43220); experiment: hGLP1R potency, cAMP accumulation in CHO-K1 cells stably overexpressing hGLP1R; assay type: cell-based; design: host or cells: CHO-K1; settings: for Selectivity: SCTR EC50/GLP1R EC50 ratio
Sequence of GLP1R (P43220 24-463): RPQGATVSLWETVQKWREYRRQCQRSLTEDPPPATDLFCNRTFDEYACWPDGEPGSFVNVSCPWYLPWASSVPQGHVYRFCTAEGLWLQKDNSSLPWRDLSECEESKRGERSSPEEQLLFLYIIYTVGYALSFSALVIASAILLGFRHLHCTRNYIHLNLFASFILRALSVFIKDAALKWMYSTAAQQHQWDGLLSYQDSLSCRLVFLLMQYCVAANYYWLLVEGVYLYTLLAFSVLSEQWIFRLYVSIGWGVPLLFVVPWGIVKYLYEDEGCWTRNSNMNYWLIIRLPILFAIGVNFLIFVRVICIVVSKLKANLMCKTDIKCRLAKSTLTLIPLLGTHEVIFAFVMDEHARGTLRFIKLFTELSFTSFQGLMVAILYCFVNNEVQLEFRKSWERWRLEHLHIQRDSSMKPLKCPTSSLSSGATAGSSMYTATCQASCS
Outline: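 CHO-K1 cells stably expressing hGLP1R (2000/well) in DPBS with 0.05% casein and 0.5 mM IBMX were stimulated 30 min at room temperature with graded compound doses; human GLP-1(7-36) served as positive control. cAMP was read by HTRF after 1 h; EC50 came from variable-slope sigmoid fits (purified peptides: 11-point 3-fold, n=2).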

[3] = Fibril formation of crude library peptides (Thioflavin T); assay type: physicochemical; design: key: average ThT fluorescence emission at 480 nm (ex 450 nm), raw units; settings: Physical stability of peptides
Outline: (§1)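 Crude peptides at 267 μM in 50 mM sodium acetate pH 4.0 or 50 mM sodium phosphate pH 7.0, pre-incubated 1-2 h at room temperature, then 4 μM final ThT added. Turbidity read first as A600. ThT fluorescence (ex 450/em 480 nm) read every 10 min for 72 h at 40° C, with 5 min shaking before each read; fibril formation = average emission.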

[4] = Turbidity of crude library peptides (absorbance at 600 nm); assay type: physicochemical; settings: Physical stability of peptides
Outline: as §1

[5] = cAMP accumulation, CHO-K1 cells overexpressing hSCTR, read-out: pEC50 hSCTR (converted)
[6] = cAMP accumulation, CHO-K1 cells overexpressing hGLP1R, read-out: pEC50 hGLPR1 (converted)

EC50 [1, 5] [nM] | Selectivity [2] | EC50 [2, 6] [nM] | Fibril formation [3] | Turbidity (pH 7) [4] | SMILES | EC50 [1] [nM] | EC50 [2] [nM]
501 | 6431 | 0.0794 | 89647 | 0.08 | CC(C)C[C@H](NC(=O)[C@H](Cc1ccccc1)NC(=O)[C@H](CCCNC(=N)N)NC(=O)[C@H](CCC(N)=O)NC(=O)[C@H](C)NC(=O)[C@H](C)NC(=O)[C@H](C)NC(=O)[C@H](Cc1ccccc1)NC(=O)[C@H](CCC(=O)O)NC(=O)[C@H](CCCCNC(=O)COCCOCCNC(=O)COCCOCCNC(=O)CC[C@H](NC(=O)CCCCCCCCCCCCCCCCCCC(=O)O)C(=O)O)NC(=O)[C@H](CC(C)C)NC(=O)[C@H](CCCNC(=N)N)NC(=O)[C@H](CO)NC(=O)[C@@H](NC(=O)[C@H](CC(=O)O)NC(=O)[C@H](CO)NC(=O)[C@@H](NC(=O)[C@H](Cc1ccccc1)NC(=O)[C@@H](NC(=O)CNC(=O)[C@H](CCC(=O)O)NC(=O)C(C)(C)NC(=O)[C@@H](N)Cc1c[nH]cn1)[C@@H](C)O)[C@@H](C)O)C(C)C)C(=O)N[C@@H](CCC(=O)O)C(=O)N[C@@H](Cc1c[nH]cn1)C(=O)N[C@@H](CC(C)C)C(=O)N[C@H](C(N)=O)C(C)C [compound 2] (H-H[Aib]EGTFTSDVSRLK([AEEA-AEEA-γGlu-C20 diacid])EFAAAQRFLEHLV-NH2) |  | 
3160 | 30234 | 0.1 | 12190 | 0.08 | CC(C)C[C@H](NC(=O)[C@H](CCC(=O)O)NC(=O)[C@H](CCCCNC(=O)COCCOCCNC(=O)COCCOCCNC(=O)CC[C@H](NC(=O)CCCCCCCCCCCCCCCCCCC(=O)O)C(=O)O)NC(=O)[C@H](CC(C)C)NC(=O)[C@@H](NC(=O)[C@H](CO)NC(=O)[C@@H](NC(=O)[C@H](CC(=O)O)NC(=O)[C@H](CO)NC(=O)[C@@H](NC(=O)[C@H](Cc1ccccc1)NC(=O)[C@@H](NC(=O)CNC(=O)[C@H](CCC(=O)O)NC(=O)C(C)(C)NC(=O)[C@@H](N)Cc1c[nH]cn1)[C@@H](C)O)[C@@H](C)O)C(C)C)[C@@H](C)O)C(=O)N[C@@H](C)C(=O)N[C@@H](C)C(=O)NC(C)(C)C(=O)N[C@@H](CCC(N)=O)C(=O)N[C@@H](CCCNC(=N)N)C(=O)N[C@@H](Cc1ccccc1)C(=O)N[C@@H](CC(C)C)C(=O)N[C@@H](CCC(=O)O)C(=O)N[C@@H](Cc1c[nH]cn1)C(=O)N[C@@H](CC(C)C)C(=O)N[C@H](C(N)=O)C(C)C [compound 79] (H-H[Aib]EGTFTSDVSTLK([AEEA-AEEA-γGlu-C20 diacid])ELAA[Aib]QRFLEHLV-NH2) |  | 

SMILES | EC50 [1, 5] [nM] | Selectivity [2] | EC50 [2, 6] [nM] | Fibril formation [3] | Turbidity (pH 7) [4] | EC50 [1] [nM] | EC50 [2] [nM]
CC(C)C[C@H](NC(=O)[C@H](Cc1ccccc1)NC(=O)[C@H](CCCNC(=N)N)NC(=O)[C@H](CCC(N)=O)NC(=O)[C@H](C)NC(=O)[C@H](C)NC(=O)[C@H](C)NC(=O)[C@@H](NC(=O)[C@H](CCC(=O)O)NC(=O)[C@H](CCCCNC(=O)COCCOCCNC(=O)COCCOCCNC(=O)CC[C@H](NC(=O)CCCCCCCCCCCCCCCCCCC(=O)O)C(=O)O)NC(=O)[C@H](CC(C)C)NC(=O)[C@@H](NC(=O)[C@H](CO)NC(=O)[C@@H](NC(=O)[C@H](CC(=O)O)NC(=O)[C@H](CO)NC(=O)[C@@H](NC(=O)[C@H](Cc1ccccc1)NC(=O)[C@@H](NC(=O)CNC(=O)[C@H](CCC(=O)O)NC(=O)C(C)(C)NC(=O)[C@@H](N)Cc1c[nH]cn1)[C@@H](C)O)[C@@H](C)O)C(C)C)C(C)C)[C@@H](C)O)C(=O)N[C@@H](CCC(=O)O)C(=O)N[C@@H](Cc1c[nH]cn1)C(=O)N[C@@H](CC(C)C)C(=O)N[C@H](C(N)=O)C(C)C [compound 62] (H-H[Aib]EGTFTSDVSVLK([AEEA-AEEA-γGlu-C20 diacid])ETAAAQRFLEHLV-NH2) |  | 18608 |  | 21979 | 0.08 | 2000 | 0.1
